Assay results from the CheMixHub viscosity set.

Assay: xn = mol fraction of the nth substance listed

CCC12CC3CC(CC(C3)C1)C2 + CCCCCCCCC
viscosity [mPa·s], 100 kPa
Conditions	x1 = 0.0998	x1 = 0.2013	x1 = 0.3004	x1 = 0.4014	x1 = 0.5002	x1 = 0.5999	x1 = 0.7002	x1 = 0.7995	x1 = 0.9008
293.15 K	1.043	1.335	1.642	1.902	2.234	2.701	3.287	4.086	5.133
298.15 K	0.972	1.243	1.492	1.728	2.019	2.384	2.881	3.537	4.44
303.15 K	0.921	1.141	1.369	1.577	1.836	2.144	2.581	3.158	3.898
308.15 K	0.836	1.053	1.261	1.448	1.684	1.957	2.34	2.833	3.47
313.15 K	0.786	0.985	1.166	1.334	1.547	1.792	2.128	2.556	3.114
318.15 K	0.729	0.901	1.073	1.232	1.416	1.644	1.94	2.32	2.815
323.15 K	0.696	0.85	1.006	1.144	1.317	1.515	1.782	2.115	2.547

O=C1CCCCC1 + CCCCCCCCC
viscosity [mPa·s], 101.33 kPa
Conditions	x1 = 0.0999	x1 = 0.1981	x1 = 0.3012	x1 = 0.4032	x1 = 0.4987	x1 = 0.6007	x1 = 0.6942	x1 = 0.7981	x1 = 0.9006
298.15 K	0.683	0.726	0.772	0.833	0.909	1.022	1.134	1.321	1.544
303.15 K	0.639	0.675	0.718	0.775	0.842	0.936	1.043	1.21	1.41
308.15 K	0.6	0.632	0.672	0.723	0.784	0.869	0.967	1.116	1.294

CC(C)CC(C)(C)C + CCCCCCCCCC
298.15 K, 101 kPa
Conditions	viscosity [mPa·s]
x1 = 0.08287	0.7981
x1 = 0.2249	0.7573
x1 = 0.3493	0.7059
x1 = 0.4309	0.6689
x1 = 0.5526	0.6214
x1 = 0.6412	0.5981
x1 = 0.735	0.5645
x1 = 0.8255	0.5303
x1 = 0.8936	0.512
x1 = 0.9357	0.4966

O=C1CCCCC1 + CCCCCCCCCC
viscosity [mPa·s], 101.33 kPa
Conditions	x1 = 0.1023	x1 = 0.2073	x1 = 0.3011	x1 = 0.4017	x1 = 0.5042	x1 = 0.6034	x1 = 0.703	x1 = 0.8	x1 = 0.9018
298.15 K	0.87	0.902	0.937	0.991	1.063	1.143	1.256	1.439	1.625
303.15 K	0.806	0.836	0.868	0.916	0.984	1.053	1.152	1.316	1.48
308.15 K	0.752	0.779	0.812	0.851	0.909	0.973	1.064	1.212	1.357

CCC12CC3CC(CC(C3)C1)C2 + CCCCCCCCCCC
viscosity [mPa·s], 100 kPa
Conditions	x1 = 0.1012	x1 = 0.2042	x1 = 0.3018	x1 = 0.4017	x1 = 0.5014	x1 = 0.6059	x1 = 0.7013	x1 = 0.8052	x1 = 0.8999
293.15 K	1.348	1.47	1.631	1.86	2.179	2.592	3.18	4.01	5.036
298.15 K	1.203	1.334	1.489	1.692	1.93	2.302	2.77	3.47	4.339
303.15 K	1.108	1.225	1.366	1.546	1.764	2.091	2.514	3.129	3.854
308.15 K	1.025	1.133	1.271	1.418	1.601	1.883	2.235	2.77	3.404
313.15 K	0.953	1.049	1.173	1.311	1.472	1.728	2.039	2.509	3.078
318.15 K	0.887	0.983	1.092	1.22	1.377	1.6	1.882	2.284	2.781
323.15 K	0.829	0.92	1.013	1.135	1.272	1.472	1.723	2.094	2.512

CC(C)CC(C)(C)C + CCCCCCCCCCCC
viscosity [mPa·s]
Conditions	298.15 K	323.14 K
100 kPa, x1 = 0.5	0.8601	0.6179
101 kPa, x1 = 0.0923	1.236	–
101 kPa, x1 = 0.1569	1.169	–
101 kPa, x1 = 0.2503	1.085	–
101 kPa, x1 = 0.3747	0.9632	–
101 kPa, x1 = 0.4786	0.8653	–
101 kPa, x1 = 0.5889	0.7696	–
101 kPa, x1 = 0.6762	0.7013	–
101 kPa, x1 = 0.7597	0.6346	–
101 kPa, x1 = 0.8459	0.5724	–
101 kPa, x1 = 0.9062	0.5377	–
101 kPa, x1 = 0.9457	0.5099	–
101 kPa, x1 = 0.9733	0.4948	–

CCCCCCO + CCCCCCCCCCCC
298.15 K, 101 kPa
Conditions	viscosity [mPa·s]
x2 = 0.0555	3.93
x2 = 0.0999	3.52
x2 = 0.1555	3.06
x2 = 0.1999	2.74
x2 = 0.2554	2.38
x2 = 0.2999	2.12
x2 = 0.3555	1.85
x2 = 0.3998	1.66
x2 = 0.4555	1.47
x2 = 0.4999	1.34
x2 = 0.5554	1.21
x2 = 0.5998	1.14
x2 = 0.6554	1.07
x2 = 0.6999	1.04
x2 = 0.7555	1.02
x2 = 0.7997	1.03
x2 = 0.8555	1.06
x2 = 0.8998	1.09
x2 = 0.9555	1.15

O=C1CCCCC1 + CCCCCCCCCCCC
viscosity [mPa·s], 101.33 kPa
Conditions	x1 = 0.1085	x1 = 0.1979	x1 = 0.3049	x1 = 0.4052	x1 = 0.5049	x1 = 0.6012	x1 = 0.7012	x1 = 0.8014	x1 = 0.9008
298.15 K	1.348	1.352	1.368	1.393	1.42	1.474	1.533	1.614	1.75
303.15 K	1.237	1.238	1.252	1.272	1.302	1.344	1.398	1.469	1.623
308.15 K	1.135	1.139	1.151	1.171	1.199	1.232	1.281	1.349	1.483

CC(=O)CC(C)C + CCCCCCCCCCO
viscosity [mPa·s], 100 kPa
Conditions	x1 = 0.0846	x1 = 0.1569	x1 = 0.2402	x1 = 0.3455	x1 = 0.4437	x1 = 0.5617	x1 = 0.6591	x1 = 0.7447	x1 = 0.8561	x1 = 0.9486
293.15 K	12.8	11.5	10.21	8.72	7.39	5.89	4.69	3.64	2.29	1.18
303.15 K	8.66	7.8	6.94	5.94	5.05	4.05	3.24	2.55	1.65	0.92
313.15 K	6.09	5.5	4.91	4.21	3.59	2.9	2.34	1.85	1.23	0.74
323.15 K	4.44	4.02	3.58	3.08	2.64	2.15	1.75	1.4	0.96	0.61

CC(=O)CC(C)C + CCCCCCCCCO
viscosity [mPa·s], 100 kPa
Conditions	x1 = 0.0834	x1 = 0.1721	x1 = 0.2398	x1 = 0.3469	x1 = 0.4365	x1 = 0.5577	x1 = 0.6608	x1 = 0.7339	x1 = 0.8594	x1 = 0.9502
293.15 K	9.91	8.52	7.62	6.42	5.48	4.28	3.31	2.64	1.6	0.93
303.15 K	6.85	5.94	5.34	4.49	3.86	3.05	2.42	1.99	1.27	0.78
313.15 K	4.92	4.29	3.87	3.27	2.82	2.27	1.82	1.51	1	0.65
323.15 K	3.63	3.18	2.88	2.45	2.13	1.73	1.4	1.18	0.81	0.55

CC(=O)CC(C)C + CCCCCCCCO
viscosity [mPa·s], 100 kPa
Conditions	x1 = 0.0818	x1 = 0.1616	x1 = 0.2492	x1 = 0.3517	x1 = 0.4411	x1 = 0.5629	x1 = 0.6505	x1 = 0.7501	x1 = 0.8518	x1 = 0.9519
293.15 K	7.68	6.48	5.45	4.46	3.71	2.87	2.32	1.72	1.2	0.76
303.15 K	5.45	4.69	3.97	3.27	2.78	2.19	1.8	1.37	0.97	0.65
313.15 K	4	3.46	2.97	2.47	2.1	1.67	1.4	1.11	0.82	0.57
323.15 K	3	2.63	2.28	1.92	1.65	1.34	1.14	0.93	0.71	0.5

CC(=O)CC(C)C + CCCCCCCO
viscosity [mPa·s], 100 kPa
Conditions	x1 = 0.0823	x1 = 0.1682	x1 = 0.2346	x1 = 0.3569	x1 = 0.4379	x1 = 0.5614	x1 = 0.6493	x1 = 0.7489	x1 = 0.8505	x1 = 0.9471
293.15 K	5.46	4.21	3.56	2.62	2.19	1.66	1.37	1.1	0.86	0.68
303.15 K	4.09	3.24	2.78	2.08	1.76	1.35	1.13	0.91	0.72	0.59
313.15 K	3.09	2.53	2.2	1.71	1.45	1.14	0.96	0.79	0.63	0.52
323.15 K	2.37	1.98	1.76	1.4	1.22	0.98	0.83	0.68	0.56	0.47

O=C1CCCCC1 + CCCCCCCO
298.15 K, 101 kPa
Conditions	viscosity [mPa·s]
x2 = 0.1013	1.965
x2 = 0.1998	2.034
x2 = 0.3029	2.16
x2 = 0.4029	2.351
x2 = 0.4994	2.584
x2 = 0.5977	2.914
x2 = 0.6971	3.335
x2 = 0.8008	3.921
x2 = 0.8949	4.663

CC(=O)CC(C)C + CCCCCCO
viscosity [mPa·s], 100 kPa
Conditions	x1 = 0.0851	x1 = 0.1723	x1 = 0.2541	x1 = 0.3619	x1 = 0.4246	x1 = 0.5566	x1 = 0.6612	x1 = 0.7441	x1 = 0.8559	x1 = 0.9468
293.15 K	3.74	2.71	2	1.37	1.12	0.78	0.65	0.6	0.56	0.56
303.15 K	2.94	2.14	1.62	1.13	0.93	0.66	0.53	0.49	0.48	0.49
313.15 K	2.32	1.79	1.38	0.96	0.79	0.54	0.43	0.41	0.41	0.43
323.15 K	1.88	1.48	1.15	0.8	0.66	0.45	0.35	0.33	0.34	0.37

O=C1CCCCC1 + CCCCCCO
303.15 K, 101 kPa
Conditions	viscosity [mPa·s]
x1 = 0.1001	3.014
x1 = 0.2599	2.391
x1 = 0.4199	2.008
x1 = 0.5798	1.861
x1 = 0.7404	1.738
